Results reported in patent US20240425710A1, “PEPTIDE-BASED BIOINK COMPOSITIONS” (Ramot at Tel-Aviv University Ltd., priority 2022, published 2024).
The star is where a group is joined. Fmoc = O=C(OCC1c2ccccc2-c2ccccc21)*

Tests used:
Assay type in all cases: physicochemical
[1] = Hydrogel formation, inverted tubes after overnight gelation; conditions: single peptide, 5 g·L−1 in water from DMSO stock
Experimental: Preparation of hydrogels: Stock solutions of each of Fmoc-FF, PepA and PepB were prepared by dissolving the respective peptides in dimethyl sulfoxide (DMSO) at a concentration of 100 gram/liter (g·L^−1). The hydrogels were prepared by diluting the stock solution in double distilled water to a final concentration of 5 grams/Liter (5 g·L^−1), to thereby obtain a hydrogel formulation. The mixture was vortexed for 2 seconds and then incubated at room temperature until gelation occurred, thereby providing a hydrogel bioink composition.
Hydrogels made of a single peptide and hybrid hydrogels made of two peptides were prepared using the solvent switch method by dissolving the monomers in DMSO and then diluting the stock solutions into water to a final concentration of 5 g-L.

[2] = TEM imaging of hydrogel fibrils; conditions: hydrogels 5 g·L−1
Experimental: Transmission electron microscopy (TEM): Samples (10 μl) were placed on copper grids (400 mesh) covered with a carbon-stabilized Formvar film (EMS, BNFFA1000-Cu). After 2 minutes, excess gel was removed, and the grids were negatively stained with 10 μl of UranylLess staining solution for 1 minute. Finally, excess fluid was removed, and the samples were viewed in a JEM 1400plus electron microscope operating at 80 kV.

[3] = Time sweep rheology of peptide hydrogels and hybrid hydrogels; conditions: 5 Hz; for G′/G″ / G′ (storage modulus) / G″ (loss modulus): hydrogels 5 g·L−1, time sweep 0.5% strain; for G′ (storage modulus): after 4 hours of gelation; for G′ (storage modulus) / G″ (loss modulus): room temperature
Experimental: Rheological measurements: Rheological analysis was performed using an AR-G2 controlled rheometer (TA Instruments, New Castle, DA, USA). Oscillatory strain (0.01-100%) and frequency sweep (0.01-100 Hz) were conducted on 100 μL samples of pre gelated disks, 8 mm in diameter. The measurement was conducted with an 8 mm geometry (resulting in a gap size of 1 mm) at room temperature, in order to define the viscoelastic region in which the oscillatory test was performed.
Time-sweep oscillatory analyses used a constant a frequency of 5 Hz and a strain of 0.5%. Freshly prepared samples (220 μL) were placed under a 20 mm parallel plate geometry (resulting in a gap of 0.6 mm) at room temperature to determine the G′ (storage modulus) and G″, (loss modulus) for each sample.
The in situ kinetics of the hydrogels formation and their mechanical properties were characterized by time sweep measurements over 4 hours at a fixed strain of 0.5% and frequency of 5 Hz, and the results are presented in FIGS. 3A-B.

[4] = Absorbance kinetics of the hydrogel formation (turbidity at 400 nm)
Experimental: Absorbance kinetics of the hydrogel formation: Samples of 100 μL of Fmoc-FF, PegA, PepB formulations and the co-assembled hydrogels (bioink compositions) were placed into a 96-well plate. Absorbance at 400 nm was measured every 30 seconds using a TECAN Infinite M2000PRO plate reader for a total of 4 hours.
To further evaluate the impact of co-assembly on gelation kinetics, the absorbance spectra of the hybrid hydrogels compared to the Fmoc-FF hydrogel at 400 nm was monitored over time and the results are presented in FIGS. 8A-B.

| Substance | hydrogel formation [1] | fibril diameter [2] [nm] | G′/G″ [3] | G′ (storage modulus) [3] [Pa] | G″ (loss modulus) [3] [Pa] | time to form a clear hydrogel (absorbance drop) ([4]; absorbance at 400 nm monitored over time) | OD value reached ([4]; absorbance at 400 nm, minimum after clearing) [OD] | time to gelation / plateau of hydrogel formation ([3]; time sweep over 4 hours, 0.5% strain, 5 g·L−1) [min] |
| --- | --- | --- | --- | --- | --- | --- | --- | --- |
| Fmoc-Phe-Phe-EG2—COOH [PepA] | formed a weak hydrogel | 9 | 3 | 157 | 42 |  |  |  |
| Fmoc-Phe-Phe-EG6-COOH [PepB] | did not form a hydrogel at all |  | 0 | 1 | 1 |  |  |  |
| Fmoc-Phe-Phe-OH [Fmoc-FF, reference compound] | rigid and stable | 16 | 37 | 9552 | 251 | within a few minutes | 0.1 | ≤ 4 |
